The subject of this experiment is P. aeruginosa biofilm. Description: Antibiotic treatment of mature biofilm in perfusion on the centrifugal microfluidic disc, propidium iodide dead/alive biomass by confocal microscopy. Type of experiment: cell-based. Particulars: 72 hours biofilm, after 24 hours of antibiotic perfusion, ciprofloxacin 4 μg/mL. The protocol:
The following is an example of how to set up an experiment using the centrifugal microfluidic disc according to the present disclosure. Initially, the entire system including the microfluidic channels is sterilized. After the sterilization of the disc, the system was filled with a medium and left overnight at a low flow rate (pump set on 0.5 RPM, around 60 μL/min). The inoculation of the bacteria in the sterilized disc was achieved by addition of 40 μL overnight culture of 1:100 diluted P. aeruginosa though the inoculation channel situated in close proximity to the cell culture chamber (see FIG. 30). During inoculation, the loading opening was closed to create a back-pressure avoiding bacteria occlusion in the serpentine channel. The adhesion of the bacteria in the culture chamber was carried out in stop flow for one hour, followed by rotation at the set frequency. The total volume of the cell chamber is around 55 μL and only 40 μL of PAO1 was inoculated in order to prevent the introduction of bacteria in the inlet channel. The inoculation in the flow system was achieved by stopping the pump and adding 250 μL overnight culture of 1:100 diluted P. aeruginosa in the selected channels in proximity of the flow chamber. It was important to clamp the silicone tubes which were feeding the channels in order to avoid a back flow. […]

With `O=C(O)c1cn(C2CC2)c2cc(N3CCNCC3)c(F)cc2c1=O` [antibiotic, Ciprofloxacin], the “bacteria dead after antibiotic perfusion” value is reported as “around 70%” (flow rate 0.3 μL/min) and “around 50%” (flow rate 1 μL/min).
